For data set [1], the target named is T1, human TNFa (Homo sapiens, UniProt P01375). Kind of data set: Inhibition by suramin of the binding of iodinated human TNFa to LM cells. The arrangement: purchased New England Nuclear (NEN), Wilmington, DE. Particulars: binding of 3 x 10^-10M human TNFa to mouse LM cells; Figure 2.
Experimental: The mixtures were then added to mouse LM cells. The residual binding of TNFa was measured and compared to the binding to LM cells in the absence or presence of a 100-fold higher dose of "cold" unlabeled human TNFa. […] For the binding assay, 24-well plates (Costar, Vis- mara Associate, Trezzano sul Naviglio, Italy) are used, that have been seeded the day before with mouse LM cells (Rubin, B.Y. et al. J. Exp. Med. 162: 1099 (1985)), 200.000 cells/well. The medium is discarded and replaced with 100 µl BM supplemented with 0.04% Na N3, 50 µl iodinated human TNF a and 50 µl BM or 50 µl cold TNF a or 50 µl of each suramin dilution. After 4 hours at 4°C cells are washed 4 x with BM, solubilized with 2% SDS and cell-associated radioactivity is determined. Data are processed as described before.
Data set [2] has as its target T1, human TNFa. Kind of data set: Inhibition by suramin of the cytotoxic activity of TNFa on actinomycin D-treated LM cells (MTT). It counts as cell-based. The note with it: mouse LM cells treated with actinomycin D, measured the day after; Figure 5. As to the method:
In the experiment depicted in Figure 5 different concentrations of human TNFa (Esquire) were incubated, in the absence or presence of different doses of suramin, with mouse LM cells treated with actinomycin D. Treatment with actinomycin D is known to render LM cells more sensitive to the cytotoxic activity of TNFa (Ruff, M.R. and Gifford, G.E., J. lmmunol. 125: 1671 (1980)). The cytotoxic activity of human TNFa was measured the day after.
Inhibition by suramin of the cytotoxic activity of TNF a on actinomycin D - treated LM cells.
The experimental design is similar to that for the assay on untreated LM cells.
The differences are as follows. • 1) 100 µl of a cell-suspension containing 3 x 10^5 cells/ml are added to each well of microtiter plates. • 2) Before setting up the TNFa-cytotoxicity assay, the cells are pretreated for 4 hours at 37 °C with complete MEM (100 µl/well) containing 2 µg/ml actinomycin D (Fluka). • 3) The cytotoxic activity of human TNF a is measured after an incubation period of 24 hours at 37 ° C.

The target of data set [3] is T1, human TNFa. Kind of data set: Inhibition by suramin of the cytotoxic activity of TNFa on untreated mouse LM cells (MTT). The class given is cell-based. The note with it: measured after 2 days, Figure 6. The protocol: The experiments depicted in Figure 6 were similar to the experiments of Figure 5, except that actinomycin D was omitted from the incubation mixture. In this case the cytotoxic activity of human TNFa was measured after 2 days. […] The degree of inhibition was dependent on the activity of human TNFa employed, i.e. doses of human TNFa exerting high cytotoxic activity were less inhibitable than those exerting lower cytotoxic activity.
3) Inhibition by suramin of the cytotoxic activity of TNF a on untreated mouse LM cells.
On day O logarithmically growing mouse LM cells (Rubin, B.Y. et al. J. Exp. Med. 162 : 1099 (1985)) are trypsinized, centrifuged and resuspended at a final concentration of 5 x 10^4 cells/ml of Eagle's minimun essential medium supplemented with 5% FCS and 1% glutamine (complete MEM). […]
The plates are further incubated for 4 hours at 37 °C. Then, supernatants are discarded, 200 µl of dimethylsulfoxide (DMSO, Farmitalia Carlo Erba) are added to each well and the extent of color development is read on a plate ELISA reader at 570 nm. OD values obtained for each TNF a concentration and each TNFa-suramin mixture are expressed as percent (%) of those obtained for the controll wells containing only complete MEM and complete MEM plus each suramin dilution, respectively.

Data set [4] deals with T1, human TNFa. As to the kind of experiment: Inhibition by suramin of the binding of iodinated human TNFa to K562 cells. Details: purchased New England Nuclear (NEN), Wilmington, DE. The note with it: for IC50: Figure 1, read-out: Inhibitory concentrations 50 (IC50). As to the method: In the experiment depicted in Figure 1 suramin was mixed, at the indicated doses, with 2.5 x 10^-11M, 10^-10M, or 4 x 10^-10M iodinated human TNFa - (New England Nuclear, NEN, Wilmington, DE). The mixtures were then added immediately to K562 cells. The residual binding of TNF a was measured and compared to the binding to K562 cells in the absence or presence of a 100-fold higher dose of "cold" unlabeled human TNFa (Esquire Chemie AG, Zuerich, Switzerland). […] Higher doses of suramin are required to inhibit the binding of higher doses of iodinated TNFa. […]
1) Inhibition by suramin of the binding of iodinated human TNF a to K562 cells.
lodinated human TNFa (NEN, specific activity = 30 - 70 µCi/µg protein) is diluted so to have concentrations of 1.6 x 10-^9 M, 4 x 10^-10M and 10^-10M in RPMI 1640 medium (Flow, Opera, Italy) supplemented with 2% foetal calf serum (FCS, PBI, Milan, Italy) and 14 mM Hepes (Flow). This medium will hereon be referred to as binding medium (BM). "Cold" unlabeled human TNF a (Esquire) is diluted in BM so to have concentrations of 1.6 x 10^-7M, 4 x 10-^8 M and 10^-8M. Suramin (Bayer, Leverkusen, FRG) is dissolved in BM so to have a concentration of 4 mM. Starting from this solution a series of dilutions are set up in BM.
K562 cells (human chronic myelogenous leukemia, ATCC CCL243) are adjusted to a concentration of 2 x 10^6/ml in BM. 100 µl of the cell suspension are then incubated with 50 µl of each iodinated TNFa concentration and with 50 µl BM or 50 µl of a 100 fold higher concentration of "cold" TNF a or 50 µl of each suramin dilution. The mixtures are incubated for 4 hours at […]. Thereafter the cells are centrifuged through a phthalate-dibutyl phthalate oil mixture (1:1,5 vol/vol, Fluka AG, Buchs, Switzerland). Cell-associated radioactivity is determined in a gamma-counter. Data thus obtained are processed by means of an equilibrium binding data analysis program (EBDA, Elsevir Science Publishers, Amsterdam, Netherlands). […]

T1 sequence (P01375 77-233 limits assumed): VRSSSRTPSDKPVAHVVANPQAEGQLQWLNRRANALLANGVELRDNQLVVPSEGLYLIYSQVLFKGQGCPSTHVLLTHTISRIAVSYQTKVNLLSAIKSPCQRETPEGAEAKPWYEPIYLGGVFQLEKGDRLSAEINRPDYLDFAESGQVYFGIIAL

Turning to `Cc1ccc(C(=O)Nc2ccc(S(=O)(=O)O)c3cc(S(=O)(=O)O)cc(S(=O)(=O)O)c23)cc1NC(=O)c1cccc(NC(=O)Nc2cccc(C(=O)Nc3cc(C(=O)Nc4ccc(S(=O)(=O)O)c5cc(S(=O)(=O)O)cc(S(=O)(=O)O)c45)ccc3C)c2)c1` [suramin, 8,8' - (carbonylbis(imino-3,1-phenylenecarbonylimino (4-methyl-3,1-phenylene)carbonylimino)) bis-1,3 ,5-naphthalenetrisulfonic acid], the IC50 amounted to 175 µM in data set [1], 78 µM in data set [4] (binding of 2.5 x 10-"M human TNFa to human K562 cells), 180 µM in data set [4] (binding of 4 x 10-'°M human TNFa to human K562 cells) and 126 µM in data set [4] (binding of 10^-10M human TNFa to human K562 cells). Further, the “inhibition of the cytotoxic activity of human TNFa” value in data set [2] is given as “inhibited, in a dose- dependent manner”; in data set [3] it was “inhibited, in a dose- dependent manner”. In data set [4] (sequential addition of suramin and 10^-10M TNFa, K562 cells washed in between, Figure 4), the “inhibition of the binding of TNFa to K562” value is given as “no inhibition”.

These data come from EP0486809A2, “Use of suramin against TNF-related diseases” (priority 1990, dated 1992).
